In test [1] the test system is experimental aortic aneurysms (decellularized guinea-pig aorta xenograft in rat aorta). Description: AAA model: external aneurysmal diameter after xenograft implantation. It is filed as in vivo. The text has this: (§1) Experimental aortic aneurysms were induced by implanting a segment of sodium dodecyl sulfate-decellularized guinea-pig aorta (xenogenic matrix) in rat aortas (Allaire E. et al. (1994), J Vasc Surg 19:446-456). This AAA model is characterized by immuno-inflammatory injury of the xenogeneic extracellular matrix (Allaire E et al. (1997), Surgery 122:73-81; Allaire E et al. (1996), Transplantation 62:794-803). Briefly, 46 male Lewis rats (250 g) and 46 guinea-pigs (280 g) (Iffa Credo, Lyon, France) were housed according to the principles of Laboratory Animal Care formulated by the European Union. Animals were anaesthetized by intraperitoneal injection of pentobarbital (5 mg/100 g body weight). Guinea-pig infrarenal aortas (1.5 cm) were sampled and decellularized by sodium dodecyl sulfate treatment to obtain tubes of intact extracellular matrix, which were orthotopically transplanted into the aorta of Lewis rats with 10/0 nylon interrupted sutures (xenograft) (Allaire et al., 1997; Allaire et al., 1996). The initial diameter of the graft was measured in situ, immediately after unclamping, under a binocular microscope. After 24 h, rats were randomly assigned to two equal groups, treated with Compound (A) (10 mg/kg body weight twice daily by oral administration) or with the diluent of Compound (A) (1% carboxymethylcellulose/0.1% Tween-80 in water) for 10 days (D10, n=9 for each group) or 6 weeks (D42, n=14 for each group). At sacrifice, rats were deeply anesthetized, the graft diameter was measured again, and the aorta was dissected out and fixed in 4% paraformaldehyde. Aortic samples were embedded in paraffin and cut at 5 μm.
(§2) Results are expressed as means±S.D. The percentage of diameter increase was calculated as follows: (diameter at harvest−diameter at grafting)×100/diameter at grafting. Comparisons between the two groups were made using the nonparametric Mann-Whitney U test (Statview, version 4.5). The frequency of aneurysms of large diameter in the different groups was analyzed by X^2 test. Simple regression analysis was used to test for correlations between various parameters. P<0.05 was considered significant.

Test [2] deals with experimental aortic aneurysms (mural thrombus and aneurysmal wall). Description: AAA model: histological and immunohistochemical analysis of aneurysm. The format is in vivo, rat.
Source text: as §1
Sections were stained with picro Sirius red to visualize collagen and fibrin and with orcein to visualize elastin. Immunohistochemistry was performed using anti-human α-actin (dilution 1:500, Dako, Trappes, France), anti-CD68 (macrophages, dilution 1:1000, Serotec, Cergy Saint-Christophe, France), anti-rat polymorphonuclear leukocytes (dilution 1:3000, Cedarlane, Ontario, Canada), anti-CD41 (integrin αIIb, platelets, dilution 1:50, Santa Cruz Biotechnologies) and anti-MMP-9 (dilution 1:50, Calbiochem, Darmstadt, Germany) as primary antibodies and a peroxidase Vector ABC kit for detection (Vector Labs, Burlingame, Calif., USA). Cells were counted with a grid in the microscope eyepiece and averaged in 4 symmetrical fields on the same slide. The size of the areas represented by thrombus, elastic fiber, AAA wall, and MMP-9- and CD41-positive staining were measured by morphometric analysis using Histolab software (Microvision Instruments, Evly, France). Thrombus areas were determined on Sirius red slides. The area occupied by positive staining was quantified by the color detecting mode of the computer program in the inner thrombus and outer wall.
as §2

The mark [3] stands for this setting: Day 42, 10 mg/kg twice daily oral.

Structures are written as SMILES. Entries after “also recorded” stand apart in the source; their conditions may differ.

These results are taken from patent US20150272955A1, “Triazolo[4,5-D]Pyrimidine Compounds For Treatment Of Abdominal Aortic Aneurysms” (AstraZeneca AB, priority 2007, published 2015).

Consider `CCCSc1nc(N[C@@H]2C[C@H]2c2ccc(F)c(F)c2)c2nnn([C@@H]3C[C@H](OCCO)[C@@H](O)[C@H]3O)c2n1` (relative stereo) [Compound (A), {1S-[1α,2α,3β(1S*,2R*),5β]}-3-(7-{[2-(3,4-difluorophenyl)cyclopropyl]amino}-5-(propylthio)-3H-1,2,3-triazolo[4,5-d]pyrimidin-3-yl)-5-(2-hydroxyethoxyl)cyclopentane-1,2-diol], for which the “increase in aneurysmal diameter between Days 10 and 42” value in test [1] (10 mg/kg twice daily oral) is given as “no increase in aneurysmal diameter was observed”. Besides, the “percent increase in external diameter vs control” value in test [1] (setting [3]) is given as “significantly reduced”. The “incidence of larger aneurysms (diameter >4 mm)” value in test [1] (Day 42, X^2=11.6, P<0.001) was “predominated in the control group”. Also, the “increase in external aneurysmal diameter” value in test [1] (male Lewis rats, 10 mg/kg twice daily oral, 10 days, n=9) worked out at 197.3±52.8%. Also, the “mean external aneurysmal diameter” value in test [1] (male Lewis rats, 10 mg/kg twice daily oral, Day 10) worked out at 2.22±0.56 mm. Further, the “mean external aneurysmal diameter” value in test [1] (male Lewis rats, 10 mg/kg twice daily oral, Day 42, n=14) stood at 3.61±1.46 mm. Also, in test [2] (Day 10, 10 mg/kg twice daily oral), the thrombus area/wall area worked out at 0.07±0.05. In test [2] (setting [3]), this compound registered a thrombus area/wall area of 0.35±0.44. In addition, the “CD41-positive area (platelet marker) within the thrombus” value in test [2] (Day 42, P=0.005 vs control) is given as 0.13±0.16. The “MMP-9-positive area in the thrombus and the wall” value in test [2] (Day 42, immunostaining) is “markedly reduced”. Also, the “slope (s) of correlation between thrombus area and aneurysm diameter” value in test [2] (Day 42, intragroup analysis) is listed as 0.17. In addition, in test [2] (Days 10 and 42), the “infiltration of PMNs into the mural thrombus” value is reported as “significantly inhibited”, the “infiltration of macrophages into the mural thrombus” value is listed as “significantly inhibited” and the “macrophage infiltration into the aneurysmal wall” value was “did not reach statistical significance; also recorded: no change”. Also, in test [2] (Days 10 and 42, orcein staining), the “elastic fibers of the media (elastic lamellae area)” value is “significant preservation”. In test [2] (after 10 or 42 days), the “SMC colonization of the wall” value was “did not affect”. Also, the “density of SMCs within the thrombus” value in test [2] (treatment for 10 days, α-actin staining) is reported as “did not modify”. For the same compound, the “SMC colonization of the thrombus” value in test [2] (treatment for 42 days, α-actin staining) is listed as “significantly improved”.
